Patent US6358521B1, “Fermented milk nutraceuticals” (priority 1993, dated 2002)

System: purulent wound infected with Staphylococcus aureus
Assay: Purulent skin-facial wound model infected with Staphylococcus aureus, topical treatment
Type: in vivo, Chinchilla rabbits
Procedure: The effect of topical administration of a fermented milk product prepared as described above was studied using 24 Chinchilla rabbits. Standard skin-facial wounds of about 2×2.5 cm (500 sq. mm) in size were inflicted in the back area of all the rabbits; a skin graft was dissected with subcutaneous fat and fascia up to a muscular layer, wound edges containing subcutaneous muscle were crushed with Kocher's forceps. Following hemeostasis, rabbits were infected by introducing 1 ml microbial suspension containing 1.5×10^9 Staphylococcus aureus into the wound.
All animals were divided into three groups each containing eight rabbits. In group I (test), the animals were treated with the fermented milk. For comparison, rabbits of Group II were treated with Rivanol (Chinosolfabrik, Germany). Group III consisted of control, untreated animals. Treatment was initiated on the third day postinfection. The fermented milk preparations were applied locally using liberally wetted, loosely placed napkins onto the wound followed by application of an aseptic dressing. Animals of the control group were maintained under identical conditions, and were subjected to daily wound sanitation and application of aseptic dressings.
The clinical course of wound healing was controlled based on a number of criteria—nature and amount of the discharge, terms for arresting a perifocal inflammatory reaction, necrolysis terms, emergence of granulations, epithelization, terms of a wound healing. At the same time, the surface area of the wound was measured; cytological, morphological studies of the wound edge and bottom were carried out; and bacteriological studies of wound discharge (prior and during the treatment) were performed. To determine the presence of microbes in sections, the preparations were Gram-Weigart stained. Bacteriological studies were carried out with regard to a rate and duration of Staphylococcus dissemination from a destruction focus. The following quantitative characteristics of dissemination were used: up to 25 colonies on a Petri dish=limited growth; up to 70 colonies=poor growth; up to 200 colonies=abundant growth; and more than 200 colonies=complete growth.
Material from a purulent wound was removed with a calcined and quenched standard loop, 3 mm in diameter, emulsified in 1 ml saline and then plated by 0.05 ml onto Petri dishes of plain agar. The plated material was placed in an incubator at 37° C. for 18-20 hours followed by Staphylococcus aureus colony count.

[1] = local application, treatment from third day postinfection

## CCOc1ccc2nc3cc(N)ccc3c(N)c2c1 [Rivanol]
[1]
  Edge epithelization advent: 15.1 days
  Full wound filling with granules: 18.9 days
  Full wound healing: 24.7 days
Local application, treatment from third day postinfection, 8 rabbits per group
  First granulation advent: 7.0 days
Local application, treatment from third day postinfection, column after first granulation advent
  Full wound healing, days (first column of that name): 13.5 days
Study of cicatrices after healing
  Nature of the cicatrix: a more coarse cicatricial tissue prevailed
